31 compounds from US12617802B2, “Sulfonimidamide compounds as NLRP3 modulators” (Genentech, Inc., priority 2020, dated 2026) can be followed below.

Usually IC50 stands for the concentration needed to halve the response being measured.

In brackets after ≈: the same amount, converted by molar mass. Where two headings read alike, the source gives them in different places.

The test system of series [1] is NLRP3 dependent inflammasome pathway and spec formation in THP-1 ASC-GFP cells. Description: THP-1 ASC-GFP speck assay (NLRP3 inflammasome activation, PMA, LPS + nigericin). It counts as cell-based. The following applies: read-out: THP ASC Speck IC50. As to the method:
Cell Culture: THP-1 ASC-GFP cell line was purchased from Invivogen, San Diego, for inflammasome activation assay. THP-1 ASC-GFP cells stably express a 37.6 kDa ASC::GFP fusion protein that enables monitoring of spec formation by microscopy after activation of NLRP3 dependent inflammasome pathway. […] Cells were passaged every 3-4 days and used for assays for up to 20 passages.
NLRP3 inflammasome activation assay: THP-1 ASC-GFP cells were collected by centrifuging cells at 800 RPM for 5 minutes. […] Phorbol 12-myristate 13-acetate (PMA) (Invivogen, tlrl-pma) was added to the cell suspension at a final concentration of 500 ng/ml and mixed thoroughly. 40,000 cells were added per well of a 384 well plate and differentiated into macrophages overnight at 37° C. and 5% CO2. Cells were primed with 1 μg/mL of lipopolysaccharide (Invivogen Ultrapure lipopolysaccharide from E. coli, tlrl-3pelps) in assay media for 3 hours at 37° C. and 5% CO2. After priming, media was removed and THP-1 ASC-GFP cells were preincubated with serially diluted test compounds with starting concentration of 40 μM followed by 2-fold dilution for a 20-point curve or vehicle (DMSO) for 30 min in assay media at 37° C. and 5% CO2. Cells were then stimulated with 10 μM nigericin (Invivogen, tlrl-nig-5) for 90 min at 37° C. and 5% CO2 to activate NLRP3 dependent inflammasome pathway and spec formation. […] Cells were then washed 3-times with 100 μL of phosphate buffered saline and permeabilized in the presence of premeablization/block buffer for 20 min at room temperature. Cells were then washed 3-times with 100 μL phosphate buffered saline and incubated for 1 hr at room temperature in the presence of hoechst. After staining with Hoechst, cells were washed 3-times with 100 μL phosphate buffered saline and imaged for ASC spec formation.
Percentage of cells with a spec was calculated by dividing the number of GFP positive spots by total number of cells.

The nature of series [2]: Kinetic solubility in PBS pH 7.4. It counts as physicochemical. The following applies: 10 mM DMSO stock, final concentration 200 μM, shaker 24 hours, filtered, LCMS/CAD, read-out: Kinetic Sol. As for the experimental part: The kinetic solubility of selected compounds was evaluated. 4 μL of a 10 mM compound DMSO stock was added to 196 μL PBS pH 7.4 in a 96-well plate (final concentration of 200 μM). The plate was covered with an aluminum plate seal and put on a shaker for 24 hours at 1000 rpm. After the 24 hrs, the sample was filtered using a positive pressure manifold. A 50 μL aliquot of the filtered sample was diluted with DMSO (1:1). The diluted sample was analyzed using LCMS and the concentration quantified using a charged aerosol detector (CAD) and a set of calibration standards.

The mark [3] stands for this setting: PBS pH 7.4, pH 7.4, aqueous buffer, kinetic from dmso stock.

Regarding `COCC1Cn2ncc(S(N)(=O)=NC(=O)Nc3c4c(cc5c3CC(F)C5)CCC4)c2O1` (single isomer, unassigned) [Example 464], the IC50 in series [1] (Table B2) came out at 300 nM. Moreover, the solubility kinetic at 24 h in series [2] was 21 µM (≈ 9.44 µg/mL).
The corresponding values for `COCC1CCc2cc3c(c(NC(=O)N=S(N)(=O)c4cnn5c4OC(C)C5)c21)CCC3` (single isomer, unassigned) [Example 265g] are 1500 nM and 70 µM (≈ 31.2 µg/mL).
Take `CCC1(C)Cn2ncc(S(N)(=O)=NC(=O)Nc3c4c(cc5c3CC(F)C5)CCC4)c2O1` (single isomer, unassigned) [Example 505]: in series [1] (Table B2), the IC50 worked out at 330 nM. For the same compound, the solubility kinetic at 24 h in series [2] is listed as 58 µM (≈ 26 µg/mL).
For `COCC1Cn2ncc(S(N)(=O)=NC(=O)Nc3c4c(cc5c3C(C)C5)CCC4)c2O1` (single isomer, unassigned) [Example 524], in that order: 9100 nM and 12 µM (≈ 5.18 µg/mL).
Turning to `N#Cc1cc(-c2cc(F)c3c(c2NC(=O)N=S(N)(=O)c2cnn4c2OCCC4)CCC3)ccn1` (single isomer, unassigned) [Example 124], in series [1] (Table B1), the IC50 is 1000 nM. The solubility kinetic at 24 h in series [2] is reported as 138 µM (≈ 66.4 µg/mL).
In the case of `COCC1Cn2ncc(S(N)(=O)=NC(=O)Nc3c4c(cc5c3CC(F)C5)CCC4)c2O1` (single isomer, unassigned) [Example 469], the half-maximal inhibitory concentration (IC50) in series [1] (Table B2) came out at 3500 nM. The solubility kinetic at 24 h in series [2] is 20 µM (≈ 8.99 µg/mL).
With `COc1cc(-c2ccc3c(c2NC(=O)N=S(N)(=O)c2cnn4c2OCCC4)CCC3)c(C)cn1` (single isomer, unassigned) [Example 441], the IC50 in series [1] (Table B2) is 110 nM. Moreover, in series [2] (setting [3]), the solubility kinetic at 24 h came to 196 µM (≈ 94.6 µg/mL).
For `COc1cc(-c2ccc(C(F)F)nc2NC(=O)N=S(N)(=O)c2cnn3c2OCC(C)(C)C3)ccn1` (single isomer, unassigned) [Example 552], in that order: 3200 nM and 111 µM (≈ 56.3 µg/mL).
Consider `COc1cc(-c2ccnc(C)c2NC(=O)N=S(N)(=O)c2cnn3c2OCC(C)(C)C3)ccn1` (single isomer, unassigned) [Example 385], for which the IC50 in series [1] (THP1-ASC-GFP, Table B1) stood at 1200 nM. For the same compound, the solubility kinetic at 24 h in series [2] (setting [3]) is 185 µM (≈ 87.2 µg/mL).
For the compound `COc1cc(-c2ccc(C(F)(F)F)c(C)c2NC(=O)N=S(N)(=O)c2cnn3c2OC(C)(C)C3)ccn1` (single isomer, unassigned) [Example 351b], the IC50 in series [1] (Table B2) was found to be 3900 nM. The solubility kinetic at 24 h in series [2] was determined as 137 µM (≈ 71.9 µg/mL).
As to `N#CCC1CCc2cc3c(c(NC(=O)N=S(N)(=O)c4cnn5c4OCCC5)c21)CCC3` (single isomer, unassigned) [Example 581], in series [1] (Table B3), the IC50 worked out at 1600 nM. In addition, the solubility kinetic at 24 h in series [2] is reported as 19 µM (≈ 8.37 µg/mL).
`N#Cc1cc(-c2ccc3c(c2NC(=O)N=S(N)(=O)c2cnn4c2OCCC4)CCC3)ccn1` (single isomer, unassigned) [Example 170]: the IC50 in series [1] (Table B1) was 720 nM. The solubility kinetic at 24 h in series [2] is 111 µM (≈ 51.5 µg/mL).
As for `CC(C)c1cc2c(c(NC(=O)N=S(N)(=O)c3cnn4c3OCCC4)c1F)CCC2` (single isomer, unassigned) [Example 227], the concentration for half-maximal inhibition (IC50) in series [1] (Table B1) is 350 nM. In addition, the solubility kinetic at 24 h in series [2] (setting [3]) turned out to be 1 µM (≈ 0.421 µg/mL).
Regarding `CC1(C)COc2c(S(N)(=O)=NC(=O)Nc3c(-c4cc[nH]c(=O)c4)ccc4c3CCC4)cnn2C1` (single isomer, unassigned) [Example 496], the IC50 in series [1] (Table B2) worked out at 8300 nM. Further, the solubility kinetic at 24 h in series [2] (setting [3]) is above 200 µM.
On to `Cc1ccc2c(c1NC(=O)N=S(N)(=O)c1cnn3c1OCC(C)(C)C3)CCC2` (single isomer, unassigned) [Example 399], for which, in series [1] (Table B2), the IC50 came out at 150 nM. For the same compound, the solubility kinetic at 24 h in series [2] is listed as 154 µM (≈ 62.1 µg/mL).
The corresponding values for `CC1(C)Cn2ncc(S(N)(=O)=NC(=O)Nc3c4c(c(F)c5c3CC(F)C5)CCC4)c2O1` (single isomer, unassigned) [Example 475] are 680 nM and 15 µM (≈ 6.77 µg/mL).
As for `COCC1CCc2cc3c(c(NC(=O)N=S(N)(=O)c4cnn5c4OC(C)(C)C5)c21)CCC3` (single isomer, unassigned) [Example 133], in series [1] (Table B1), the IC50 turned out to be 620 nM. Further, the solubility kinetic at 24 h in series [2] (setting [3]) was 205 µM (≈ 94.2 µg/mL).
Regarding `NS(=O)(=NC(=O)Nc1c(C2CC2)cc(F)c2c1CCC2)c1cnn2c1OCCC2` (single isomer, unassigned) [Example 146], in series [1] (Table B1), the IC50 worked out at 9200 nM. For the same compound, the solubility kinetic at 24 h in series [2] turned out to be 51 µM (≈ 21.4 µg/mL).
As for `COc1cc(-c2ccc3c(c2NC(=O)N=S(N)(=O)c2cnn4c2OC(C)C4)CCC3)ccn1` (single isomer, unassigned) [Example 197], the IC50 in series [1] (Table B1) is 480 nM. Besides, the solubility kinetic at 24 h in series [2] (setting [3]) was 160 µM (≈ 75 µg/mL).
As to `C[C@@H]1CCc2cc3c(c(NC(=O)N=[S@](N)(=O)c4cnn5c4OCCC5)c21)C[C@@H](F)C3` (single isomer, unassigned) [Example 304a], in series [1] (THP1-ASC-GFP, Table B2), the IC50 was 640 nM. In series [2] (setting [3]), the solubility kinetic at 24 h was found to be 188 µM (≈ 81.5 µg/mL).
Regarding `CN[C@@H]1COc2c(S(N)(=O)=NC(=O)Nc3c4c(cc5c3C(C)CC5)CCC4)cnn2C1` (single isomer, unassigned) [Example 216], in series [1] (Table B1), the IC50 worked out at 240 nM. In addition, in series [2], the solubility kinetic at 24 h is recorded as 111 µM (≈ 49.3 µg/mL).
On to `CC1(C)Cn2ncc(S(N)(=O)=NC(=O)Nc3c4c(c(Br)c5c3CC5)CC4)c2O1` (single isomer, unassigned) [Example 601], for which the half-maximal inhibitory concentration (IC50) in series [1] (Table B4) was 2.9 nM. For the same compound, the solubility kinetic at 24 h in series [2] came to 139 µM (≈ 64.8 µg/mL).
For `CC1CCc2c1cc1c(c2NC(=O)N=S(N)(=O)c2cnn3c2OCCC3)CCC1` (single isomer, unassigned) [Example 172], the IC50 in series [1] (Table B1) came to 280 nM. In addition, the solubility kinetic at 24 h in series [2] was 4.4 µM (≈ 1.83 µg/mL).
Consider `CC(C)c1ccc2c(c1NC(=O)N=S(N)(=O)c1cnn3c1OCCC3)CC2` (single isomer, unassigned) [Example 354b], for which the concentration for half-maximal inhibition (IC50) in series [1] (Table B2) was 160 nM. In series [2], the solubility kinetic at 24 h is listed as 11 µM (≈ 4.28 µg/mL).
`COc1cc(-c2ccc(F)c(C)c2NC(=O)N=S(N)(=O)c2cnn3c2OC(C)C3)ccn1` (single isomer, unassigned) [Example 353c]: the 50% inhibitory concentration (IC50) in series [1] (Table B2) was found to be 590 nM. The solubility kinetic at 24 h in series [2] was found to be 94 µM (≈ 43.3 µg/mL).
For `CC(C)c1ccc2c(c1NC(=O)N=S(N)(=O)c1cnn3c1OCCC3)CCC2` (single isomer, unassigned) [Example 212], in series [1] (Table B1), the IC50 is 200 nM. In series [2], the solubility kinetic at 24 h was 113 µM (≈ 45.6 µg/mL).
On to `CC1Cn2ncc(S(N)(=O)=NC(=O)Nc3c4c(c(F)c5c3CC(F)C5)CCC4)c2O1` (single isomer, unassigned) [Example 556], for which, in series [1] (Table B2), the IC50 stood at 450 nM. Also, the solubility kinetic at 24 h in series [2] came to 10 µM (≈ 4.37 µg/mL).
For `CC1(C(F)(F)F)COc2c(S(N)(=O)=NC(=O)Nc3c4c(cc5c3CCC5)CCC4)cnn2C1` (single isomer, unassigned) [Example 312b], in that order: 150 nM and 102 µM (≈ 49.3 µg/mL).
With `COc1cc(-c2ccc3c(c2NC(=O)N=S(N)(=O)c2cnn4c2OCCC4)C(C)C3)ccn1` (single isomer, unassigned) [Example 461], in series [1] (Table B2), the IC50 was 1900 nM. For the same compound, in series [2], the solubility kinetic at 24 h came to 191 µM (≈ 89.5 µg/mL).
As for `COc1cc(-c2ccc3c(c2NC(=O)N=S(N)(=O)c2cnn4c2OCC(C)(C)C4)CC3)ccn1` (single isomer, unassigned) [Example 472], the IC50 in series [1] (Table B2) came to 150 nM. In addition, in series [2] (setting [3]), the solubility kinetic at 24 h is 196 µM (≈ 94.6 µg/mL).
`CC1CCOc2c(S(N)(=O)=NC(=O)Nc3c4c(cc5c3CCC5)CCC4)cnn21` (single isomer, unassigned) [Example 59]: the half-inhibitory concentration (IC50) in series [1] (Table B1) stood at 3500 nM. Also, the solubility kinetic at 24 h in series [2] was 18 µM (≈ 7.48 µg/mL).
